Data as given in patent US7781565B2 (priority 2006, dated 2010).

Tested on: NCI-60 cell lines
Format: cell-based, human

Substance	Cell Line with which the peptide (and its tripeptide motif) is associated	Cell Line (NCI-60 cell line the peptide is associated with)	Cell Line (NCI-60 cell line the peptide and its motif are associated with)	Cell Line the peptide is associated with (peptide recovered from phage library selection on this NCI-60 cell line)
VHRVSGG	RPMI-8226-Leukemia	–	–	–
SRASDVT	–	SW620-Colon	–	–
GLRGSVW	–	COLO-205-Colon	–	–
RFSGGLQ	–	–	SK-MEL-28 Melanoma	–
MRGVARK	–	–	A498 Renal	–
LRYNLRS	RPMI-8226-Leukemia	–	–	–
KGDGSVR	–	–	SK-OV-3-3 Ovarian	–
GLRDGVE	–	–	–	A498 Renal
SYFRAGR	H23-Lung	–	–	–
PPGGLKW	–	SW620-Colon	–	–
FPAVSTE	–	–	–	T-47D Breast
GLREAHV	–	–	UACC62 Melanoma	–
EVLWGGR	–	SF-268 CNS	–	–
WGSSTVR	H322-Lung	–	–	–
GRLWSRV	Hop-92-Lung	–	–	–
AVSKRLP	H522-Lung	–	–	–
FFGGSRA	K-562-Leukemia	–	–	–
VRVSGLT	–	–	SK-MEL-5 Melanoma	–

Substance	Cell Line with which the peptide (and its tripeptide motif) is associated	Cell Line (NCI-60 cell line the peptide is associated with)	Cell Line (NCI-60 cell line the peptide and its motif are associated with)	Cell Line the peptide is associated with (peptide recovered from phage library selection on this NCI-60 cell line)
RVSSETF	–	–	A498 Renal	–
ARAMGLR	Hop-62-Lung	–	–	–
GGRSQEG	–	–	–	UO31 Renal
SGRLWVG	–	–	–	RXF393 Renal
GGSRAAE	H322-Lung	–	–	–
GVLTRGN	–	–	OVCAR-8 Ovarian	–
HSRAVAP	SR Leukemia	–	–	–
GGLSRSN	–	SF-268 CNS	–	–
GHGSGSR	–	–	–	ACHN Renal
NKGGLRQ	–	–	SK-OV-3-3 Ovarian	–
PLAVGLV	–	HCT-116 Colon	–	–
AGSGFPF	–	HT-29 Colon	–	–
LRAVEFL	–	MALME-3M Melanoma	–	–
GSVSDRF	–	SF-268 CNS	–	–
GAGLGVS	–	–	IGROV1 Ovarian	–
ARVSGRV	H23-Lung	–	–	–
WTERASA	–	HCT-15 Colon	–	–
